Results on 22 molecules are retold here after US20210070748A1, “INHIBITORS OF BRUTONS TYROSINE KINASE” (Pharmacyclics LLC, priority 2015, published 2021).

The target of one experiment is T1, BTK-WT (Homo sapiens, UniProt Q06187).
T1 construct: purified from insect cells as a full-length construct containing an N-terminal 6X-His tag; His6 (N); made in house; host or cells: insect cells (baculovirus Sf21 in Method B)
Nature of the experiment: Btk in vitro inhibitory activity (one of Method A TR-FRET, Method B electrophoretic mobility shift, Method C radiometric filter binding). Type of experiment: biochemical. To be noted: read-out: BTK-WT (IC50). (A gel shift assay detects complexes by their altered migration in electrophoresis.)

For the next experiment, the target named is T2, JAK3 (Homo sapiens, UniProt P52333).
T2 sequence (P52333 1-1124): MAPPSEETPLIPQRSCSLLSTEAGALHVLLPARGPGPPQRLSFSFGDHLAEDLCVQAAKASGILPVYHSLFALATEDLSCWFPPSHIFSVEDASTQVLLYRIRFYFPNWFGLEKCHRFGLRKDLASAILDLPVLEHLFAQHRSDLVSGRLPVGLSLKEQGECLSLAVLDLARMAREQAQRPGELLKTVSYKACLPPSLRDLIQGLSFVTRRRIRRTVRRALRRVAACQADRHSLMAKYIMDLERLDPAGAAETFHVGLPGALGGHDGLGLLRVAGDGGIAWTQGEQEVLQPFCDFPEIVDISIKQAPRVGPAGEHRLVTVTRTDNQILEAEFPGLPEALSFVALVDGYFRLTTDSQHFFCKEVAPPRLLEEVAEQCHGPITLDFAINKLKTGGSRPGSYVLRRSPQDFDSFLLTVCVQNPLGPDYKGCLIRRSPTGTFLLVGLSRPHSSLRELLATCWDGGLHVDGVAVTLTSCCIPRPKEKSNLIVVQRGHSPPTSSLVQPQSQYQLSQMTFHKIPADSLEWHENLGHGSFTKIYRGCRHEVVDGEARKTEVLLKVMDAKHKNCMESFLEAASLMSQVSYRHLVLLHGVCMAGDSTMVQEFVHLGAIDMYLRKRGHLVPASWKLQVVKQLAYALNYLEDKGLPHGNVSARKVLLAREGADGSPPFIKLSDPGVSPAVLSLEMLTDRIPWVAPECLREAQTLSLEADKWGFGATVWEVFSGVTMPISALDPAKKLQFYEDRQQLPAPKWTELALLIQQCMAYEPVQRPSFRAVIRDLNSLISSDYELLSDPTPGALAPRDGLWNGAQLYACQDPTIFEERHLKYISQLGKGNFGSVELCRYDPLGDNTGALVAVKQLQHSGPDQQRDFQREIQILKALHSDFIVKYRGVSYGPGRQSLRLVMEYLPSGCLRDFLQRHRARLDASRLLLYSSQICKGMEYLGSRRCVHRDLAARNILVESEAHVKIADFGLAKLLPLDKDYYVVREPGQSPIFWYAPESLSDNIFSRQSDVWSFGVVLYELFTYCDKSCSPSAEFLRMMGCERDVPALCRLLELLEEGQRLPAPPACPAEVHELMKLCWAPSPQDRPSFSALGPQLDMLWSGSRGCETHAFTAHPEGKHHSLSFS
Nature of the experiment: Inhibition of a panel of kinases, in vitro HotSpot kinase assay: JAK3. In kind it is biochemical. To be noted: 1 μM ATP, read-out: JAK3 (IC50).

Where two headings read alike, the source gives them in different places.

T1 sequence (Q06187 whole entry): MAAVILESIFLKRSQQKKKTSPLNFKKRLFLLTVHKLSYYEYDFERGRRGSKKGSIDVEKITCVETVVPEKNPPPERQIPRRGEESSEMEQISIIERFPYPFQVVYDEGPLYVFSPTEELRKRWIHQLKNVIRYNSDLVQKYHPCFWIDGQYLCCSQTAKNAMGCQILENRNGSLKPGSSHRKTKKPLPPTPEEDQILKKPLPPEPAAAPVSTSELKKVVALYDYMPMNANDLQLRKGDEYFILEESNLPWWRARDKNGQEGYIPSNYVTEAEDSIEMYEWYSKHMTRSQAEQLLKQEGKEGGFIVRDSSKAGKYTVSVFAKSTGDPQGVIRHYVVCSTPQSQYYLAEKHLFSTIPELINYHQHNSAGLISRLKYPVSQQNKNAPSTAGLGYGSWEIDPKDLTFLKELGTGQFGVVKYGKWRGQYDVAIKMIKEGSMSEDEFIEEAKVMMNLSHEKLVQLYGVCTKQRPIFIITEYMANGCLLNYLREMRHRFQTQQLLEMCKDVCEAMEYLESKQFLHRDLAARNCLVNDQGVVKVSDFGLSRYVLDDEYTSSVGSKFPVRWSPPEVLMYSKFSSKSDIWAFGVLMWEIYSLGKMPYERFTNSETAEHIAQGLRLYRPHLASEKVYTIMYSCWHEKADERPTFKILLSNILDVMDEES

For the molecule `Cc1cc(Nc2nc(N3CCC[C@@H](NC(=O)c4ccc(C(C)(C)C)cc4)C3)cnc2C(N)=O)sn1` [Example A-37, 5-[(3R)-3-(4-tert-butylbenzamido)piperidin-1-yl]-3-[(3-methyl-1,2-thiazol-5-yl)amino]pyrazine-2-carboxamide], the IC50 was no more than 100 nM at BTK-WT (Table 10, Formula A-I) and greater than 10000 nM at JAK3 (Table 10, Formula A-I).

Take `CCN1N=CC2C=C(C(=O)N[C@@H]3CCCN(c4cnc(C(N)=O)c(Nc5cc(C)ns5)n4)C3)C=CC21` (stereo partly drawn) [Example A-72, N-[(3R)-1-{5-carbamoyl-6-[(3-methyl-1,2-thiazol-5-yl)amino]pyrazin-2-yl}piperidin-3-yl]-1-ethyl-3a,7a-dihydro-1H-indazole-5-carboxamide]: the half-maximal inhibitory concentration (IC50) was no more than 100 nM on BTK-WT (Table 10, Formula A-I) and 1000 to 10000 nM on JAK3 (Table 10, Formula A-I).

With `Cc1cc(Nc2nc(N3CCC[C@@H](NC(=O)c4ccc(N(C)C)cc4)[C@H]3CO)cnc2C(N)=O)sn1` (stereo in doubt) [Example A-68, 5-[(2S,3R)-3-[4-(dimethylamino)benzamido]-2-(hydroxymethyl)piperidin-1-yl]-3-[(3-methyl-1,2-thiazol-5-yl)amino]pyrazine-2-carboxamide], the half-inhibitory concentration (IC50) on BTK-WT (Table 10, Formula A-I) was 100 to 1000 nM; on JAK3 (Table 10, Formula A-I), greater than 10000 nM.

As to `Cc1cc(Nc2nc(N3CCC[C@@H](NC(=O)c4ccc(N(C)C)cc4)[C@@H]3CO)cnc2C(N)=O)sn1` [Example A-69, 5-[(2R,3R)-3-[4-(dimethylamino)benzamido]-2-(hydroxymethyl)piperidin-1-yl]-3-[(3-methyl-1,2-thiazol-5-yl)amino]pyrazine-2-carboxamide], the IC50 is 100 to 1000 nM at BTK-WT (Table 10, Formula A-I) and greater than 10000 nM on JAK3 (Table 10, Formula A-I).

With `Cc1cc(Nc2nc(N3CCC[C@@H](N(C)C(=O)c4ccc(C(C)C)cc4)C3)cnc2C(N)=O)sn1` [Example A-40, 3-[(3-methyl-1,2-thiazol-5-yl)amino]-5-[(3R)-3-[N-methyl4-(propan-2-yl)benzamido]piperidin-1-yl]pyrazine-2-carboxamide], the half-inhibitory concentration (IC50) at BTK-WT (Table 10, Formula A-I) was no more than 100 nM; on JAK3 (Table 10, Formula A-I), greater than 10000 nM.

For `CC(C)c1ccc(C(=O)N[C@@H]2CCCN(c3cnc(C(N)=O)c(Nc4ccccn4)n3)C2)cc1` [Example A-71, 5-[(3R)-3-[4-(propan-2-yl)benzamido]piperidin-1-yl]-3-[(pyridin-2-yl)amino]pyrazine-2-carboxamide], the IC50 lay in the range of 1000 to 10000 nM at BTK-WT (Table 10, Formula A-I) and 1000 to 10000 nM at JAK3 (Table 10, Formula A-I).

Regarding `Cc1cc(Nc2cc(N3CCC[C@@H](NC(=O)c4ccc(C(C)C)cc4)C3)cnc2C(N)=O)sn1` [Example A-63, 3-[(3-methyl-1,2-thiazol-5-yl)amino]-5-[(3R)-3-[4-(propan-2-yl)benzamido]piperidin-1-yl]pyridine-2-carboxamide], the half-inhibitory concentration (IC50) is no more than 100 nM on BTK-WT (Table 10, Formula A-I) and greater than 10000 nM on JAK3 (Table 10, Formula A-I).

As to `CN(C)c1ccc(C(=O)N[C@H]2CC[C@H](Nc3cnc(C(N)=O)c(Nc4ccc5ncccc5c4)n3)CC2)cc1` [Example B-2], the IC50 at BTK-WT (Table 11, Formula B-I) is 100 to 1000 nM; at JAK3 (Table 11, Formula B-I) it was greater than 10000 nM.

As for `Cc1cc(Nc2nc(N3CCC[C@@H](NC(=O)c4ccc(C5CC5)cc4F)[C@H]3C)cnc2C(N)=O)sn1` [Example A-74, 5-[(2R,3R)-3-(4-cyclopropyl-2-fluorobenzamido)-2-methylpiperidin-1-yl]-3-[(3-methyl-1,2-thiazol-5-yl)amino]pyrazine-2-carboxamide], the 50% inhibitory concentration (IC50) was no more than 100 nM at BTK-WT (Table 10, Formula A-I) and 1000 to 10000 nM at JAK3 (Table 10, Formula A-I).

On to `Cc1cc(Nc2nc(NC3CCC(NC(=O)c4ccccc4)CC3)cnc2C(N)=O)sn1` (centres unmarked) [Example B-4, 5-[(4-benzamidocyclohexyl)amino]-3-[(3-methyl-1,2-thiazol-5-yl)amino]pyrazine-2-carboxamide], for which the IC50 at BTK-WT (Table 11, Formula B-I) is no more than 100 nM; on JAK3 (Table 11, Formula B-I) it was less than 100 nM.

Take `Cc1cc(Nc2c(C(N)=O)ncc(N3CCC[C@@H](NC(=O)c4ccc(N(C)C)cc4)C3)c2C)sn1` [Example A-66, 5-[(3R)-3-[4-(dimethylamino)benzamido]piperidin-1-yl]-4-methyl-3-[(3-methyl-1,2-thiazol-5-yl)amino]pyridine-2-carboxamide]: the IC50 at BTK-WT (Table 10, Formula A-I) is 1000 to 10000 nM; on JAK3 (Table 10, Formula A-I) it was greater than 10000 nM.

Take `CC(C)c1ccc(C(=O)N[C@@H]2CCCN(c3cnc(C(N)=O)c(Nc4ccc(CN(C)C)cc4)n3)C2)cc1` [Example A-83, 3-({4-[(dimethylamino)methyl]phenyl}amino)-5-[(3R)-3-[4-(propan-2-yl)benzamido]piperidin-1-yl]pyrazine-2-carboxamide]: the IC50 at BTK-WT (Table 10, Formula A-I) was no more than 100 nM; on JAK3 (Table 10, Formula A-I), 1000 to 10000 nM.

In the case of `Cc1cc(Nc2nc(N3CCCC(CNC(=O)c4ccc(N(C)C)cc4)C3)cnc2C(N)=O)sn1` (centres unmarked) [Example A-80], the concentration for half-maximal inhibition (IC50) at BTK-WT (Table 10, Formula A-I) was no more than 100 nM; on JAK3 (Table 10, Formula A-I) it was 1000 to 10000 nM.

Consider `Cc1cc(Nc2nc(N3CCCC(CNC(=O)c4ccccc4)C3)cnc2C(N)=O)sn1` (centres unmarked) [Example A-79, 3-[(3-methyl-1,2-thiazol-5-yl)amino]-5-{3-[(phenylformamido)methyl]piperidin-1-yl}pyrazine-2-carboxamide], for which the half-inhibitory concentration (IC50) on BTK-WT (Table 10, Formula A-I) was no more than 100 nM; at JAK3 (Table 10, Formula A-I) it was 1000 to 10000 nM.

In the case of `CC(C)c1ccc(C(=O)N[C@@H]2CCCN(c3cnc(C(N)=O)c(Nc4ccccc4)n3)C2)cc1` [Example A-65, 3-(phenylamino)-5-[(3R)-3-[4-(propan-2-yl)benzamido]piperidin-1-yl]pyrazine-2-carboxamide], the IC50 at BTK-WT (Table 10, Formula A-I) was 1000 to 10000 nM; on JAK3 (Table 10, Formula A-I) it was greater than 10000 nM.

On to `Cc1cc(Nc2nc(N3CCC[C@@H](NC(=O)c4ccc(C(C)C)cc4)[C@H]3C)cnc2C(N)=O)sn1` [Example A-56, 3-[(3-methyl-1,2-thiazol-5-yl)amino]-5-[(2R,3R)-2-methyl-3-[4-(propan-2-yl)benzamido]piperidin-1-yl]pyrazine-2-carboxamide], for which the 50% inhibitory concentration (IC50) at BTK-WT (Table 10, Formula A-I) is no more than 100 nM; at JAK3 (Table 10, Formula A-I) it was 1000 to 10000 nM.

Take `CCn1cc2cc(C(=O)N[C@@H]3CCCN(c4cnc(C(N)=O)c(Nc5cc(C)ns5)n4)C3)ccc2n1` [Example A-38, N-[(3R)-1-{5-carbamoyl-6-[(3-methyl-1,2-thiazol-5-yl)amino]pyrazin-2-yl}piperidin-3-yl]-2-ethyl-2H-indazole-5-carboxamide]: the IC50 on BTK-WT (Table 10, Formula A-I) is no more than 100 nM; on JAK3 (Table 10, Formula A-I), 1000 to 10000 nM.

As for `Cc1cc(Nc2nc(N3CCC[C@@H](NC(=O)c4ccc(N(C)C)cc4)[C@H]3C)cnc2C(N)=O)sn1` [Example A-55, 5-[(2R,3R)-3-[4-(dimethylamino)benzamido]-2-methylpiperidin-1-yl]-3-[(3-methyl-1,2-thiazol-5-yl)amino]pyrazine-2-carboxamide], the half-maximal inhibitory concentration (IC50) at BTK-WT (Table 10, Formula A-I) is no more than 100 nM; on JAK3 (Table 10, Formula A-I), 100 to 1000 nM.

Consider `Cc1cc(Nc2nc(N3CCC[C@H](NC(=O)c4ccc(N(C)C)cc4)[C@H]3CO)cnc2C(N)=O)sn1` [Example A-70, 5-[(2S,3S)-3-[4-(dimethylamino)benzamido]-2-(hydroxymethyl)piperidin-1-yl]-3-[(3-methyl-1,2-thiazol-5-yl)amino]pyrazine-2-carboxamide], for which the IC50 on BTK-WT (Table 10, Formula A-I) was 100 to 1000 nM; on JAK3 (Table 10, Formula A-I) it was greater than 10000 nM.

For `Cc1cc(Nc2nc(N3CCC[C@@H](NC(=O)c4ccc(C5CC5)cc4F)C3)cnc2C(N)=O)sn1` [Example A-39, 5-[(3R)-3-(4-cyclopropyl-2-fluorobenzamido)piperidin-1-yl]-3-[(3-methyl-1,2-thiazol-5-yl)amino]pyrazine-2-carboxamide], the concentration for half-maximal inhibition (IC50) on BTK-WT (Table 10, Formula A-I) was no more than 100 nM; at JAK3 (Table 10, Formula A-I) it was greater than 10000 nM.

As to `Cc1cc(Nc2nc(N3CCC[C@H](NC(=O)c4ccc(N(C)C)cc4)[C@@H]3CO)cnc2C(N)=O)sn1` (stereo in doubt) [Example A-67, 5-[(2R,3S)-3-[4-(dimethylamino)benzamido]-2-(hydroxymethyl)piperidin-1-yl]-3-[(3-methyl-1,2-thiazol-5-yl)amino]pyrazine-2-carboxamide], the IC50 at BTK-WT (Table 10, Formula A-I) is no more than 100 nM; on JAK3 (Table 10, Formula A-I) it was 100 to 1000 nM.

`Cc1cc(Nc2nc(N3CCC[C@@H](NC(=O)c4ccc(C5CC5)c(F)c4)C3)cnc2C(N)=O)sn1` [Example A-73, 5-[(3R)-3-(4-cyclopropyl-3-fluorobenzamido)piperidin-1-yl]-3-[(3-methyl-1,2-thiazol-5-yl)amino]pyrazine-2-carboxamide]: the IC50 on BTK-WT (Table 10, Formula A-I) is no more than 100 nM; at JAK3 (Table 10, Formula A-I), 1000 to 10000 nM.

One may read the IC50 as the concentration that inhibits the measured activity by half.
